Assay type in all cases: functional
What all share (conditions): time 16-18 hrs

Experiment [1] relates to Escherichia coli. The experiment can be described thus: Antibacterial activity against Escherichia coli ATCC35150 incubated for 16 to 18 hrs by muller hinton broth based microplate reader analysis.
The subject of experiment [2] is Acinetobacter baumannii. The experiment is described as follows: Antibacterial activity against Acinetobacter baumannii ATCC19606 incubated for 16 to 18 hrs by muller hinton broth based microplate reader analysis.
For experiment [3], the system named is Staphylococcus aureus. The experiment is described as follows: Antibacterial activity against methicillin-resistant Staphylococcus aureus USA300 incubated for 16 to 18 hrs by muller hinton broth based microplate reader analysis.
The subject of experiment [4] is Acinetobacter baumannii. The experiment is described as follows: Antibacterial activity against Acinetobacter baumannii ATCC17978 incubated for 16 to 18 hrs by muller hinton broth based microplate reader analysis.
For experiment [5], the system named is Escherichia coli. The experiment can be described thus: Antibacterial activity against Escherichia coli ATCC25922 incubated for 16 to 18 hrs by muller hinton broth based microplate reader analysis.
In experiment [6] the test system is Staphylococcus aureus. The experiment can be described thus: Antibacterial activity vancomycin-intermediate resistant Staphylococcus aureus incubated for 16 to 18 hrs by muller hinton broth based microplate reader analysis.

Structures are written as SMILES. Bounds are passed on as bounds.

With `CCCCCCCCCCCCCCCC[N+]1(C)CCN(C(=O)[C@H]2NC(=O)[C@H]3NC(=O)[C@H](NC(=O)[C@@H]4NC(=O)[C@H](CC(N)=O)NC(=O)[C@H](NC(=O)[C@@H](CC(C)C)NC)[C@H](O)c5ccc(c(Cl)c5)Oc5cc4cc(c5O[C@@H]4O[C@H](CO)[C@@H](O)[C@H](O)[C@H]4O[C@H]4C[C@](C)(N)[C@H](O)[C@H](C)O4)Oc4ccc(cc4Cl)[C@H]3O)c3ccc(O)c(c3)-c3c(O)cc(O)cc32)CC1.[Br-]` (stereo in doubt), the MIC (commonly the lowest concentration that inhibits growth of the organism) in the experiment with Escherichia coli [1] was greater than 128 µg/mL; in the experiment on Acinetobacter baumannii [2], greater than 128 µg/mL; with Staphylococcus aureus [3] it was 8 µg/mL; with Acinetobacter baumannii [4], greater than 128 µg/mL; in the experiment on Escherichia coli [5], 64 µg/mL; in the experiment on Staphylococcus aureus [6] it was greater than 128 µg/mL.

For `CCCCCCCCCCCCCC[N+]1(C)CCN(C(=O)c2ccc(CN[C@@]3(C)C[C@H](O[C@H]4[C@H](Oc5c6cc7cc5Oc5ccc(cc5Cl)[C@@H](O)[C@@H](NC(=O)[C@@H](CC(C)C)NC)C(=O)N[C@@H](CC(N)=O)C(=O)N[C@H]7C(=O)N[C@H]5C(=O)N[C@H](C(=O)N[C@H](C(=O)O)c7cc(O)cc(O)c7-c7cc5ccc7O)[C@H](O)c5ccc(c(Cl)c5)O6)O[C@H](CO)[C@@H](O)[C@@H]4O)O[C@@H](C)[C@H]3O)cc2)CC1.[Br-]`, the MIC against Escherichia coli [1] is greater than 128 µg/mL; against Acinetobacter baumannii [2], greater than 128 µg/mL; against Staphylococcus aureus [3], 2 µg/mL; in the experiment on Acinetobacter baumannii [4], greater than 128 µg/mL; in the experiment on Escherichia coli [5] it was greater than 128 µg/mL; with Staphylococcus aureus [6], 64 µg/mL.

Turning to `CCCCCCCCCCCCCC[n+]1ccc(C(=O)NCCNC(=O)[C@H]2NC(=O)[C@H]3NC(=O)[C@H](NC(=O)[C@@H]4NC(=O)[C@H](CC(N)=O)NC(=O)[C@H](NC(=O)[C@@H](CC(C)C)NC)[C@H](O)c5ccc(c(Cl)c5)Oc5cc4cc(c5O[C@@H]4O[C@H](CO)[C@@H](O)[C@H](O)[C@H]4O[C@H]4C[C@](C)(N)[C@H](O)[C@H](C)O4)Oc4ccc(cc4Cl)[C@H]3O)c3ccc(O)c(c3)-c3c(O)cc(O)cc32)cc1.[Br-]` (stereo in doubt), the MIC was greater than 128 µg/mL with Escherichia coli [1]; greater than 128 µg/mL against Acinetobacter baumannii [2]; 4 µg/mL in the experiment on Staphylococcus aureus [3]; greater than 128 µg/mL in the experiment with Acinetobacter baumannii [4]; greater than 128 µg/mL in the experiment with Escherichia coli [5]; 64 µg/mL in the experiment on Staphylococcus aureus [6].

`CCCCCCCCCCCC[n+]1ccc(C(=O)NCCNC(=O)[C@@H]2NC(=O)[C@H]3NC(=O)[C@H](NC(=O)[C@@H]4NC(=O)[C@H](CC(N)=O)NC(=O)[C@H](NC(=O)[C@@H](CC(C)C)NC)[C@H](O)c5ccc(c(Cl)c5)Oc5cc4cc(c5O[C@@H]4O[C@H](CO)[C@@H](O)[C@H](O)[C@H]4O[C@H]4C[C@](C)(N)[C@H](O)[C@H](C)O4)Oc4ccc(cc4Cl)[C@H]3O)c3ccc(O)c(c3)-c3c(O)cc(O)cc32)cc1.[Br-]` (stereo in doubt): the minimal inhibitory concentration (MIC) in the experiment with Escherichia coli [1] was greater than 128 µg/mL; against Acinetobacter baumannii [2], 16 µg/mL; in the experiment on Staphylococcus aureus [3] it was 2 µg/mL; with Acinetobacter baumannii [4], 64 µg/mL; in the experiment with Escherichia coli [5], greater than 128 µg/mL; in the experiment with Staphylococcus aureus [6] it was 64 µg/mL.

For the compound `CN[C@H](CC(C)C)C(=O)N[C@H]1C(=O)N[C@@H](CC(N)=O)C(=O)N[C@H]2C(=O)N[C@H]3C(=O)N[C@H](C(=O)N[C@H](C(=O)O)c4cc(O)cc(O)c4-c4cc3ccc4O)[C@H](O)c3ccc(c(Cl)c3)Oc3cc2cc(c3O[C@@H]2O[C@H](CO)[C@@H](O)[C@H](O)[C@H]2O[C@H]2C[C@](C)(NC(=O)CCCCCCC[n+]3ccc(C)cc3)[C@H](O)[C@H](C)O2)Oc2ccc(cc2Cl)[C@H]1O.[Br-]`, the MIC with Escherichia coli [1] was greater than 128 µg/mL; with Acinetobacter baumannii [2], greater than 128 µg/mL; in the experiment with Staphylococcus aureus [3] it was 8 µg/mL; in the experiment with Acinetobacter baumannii [4], greater than 128 µg/mL; with Escherichia coli [5] it was greater than 128 µg/mL; against Staphylococcus aureus [6] it was greater than 128 µg/mL.

On to `CN[C@H](CC(C)C)C(=O)N[C@H]1C(=O)N[C@@H](CC(N)=O)C(=O)N[C@H]2C(=O)N[C@H]3C(=O)N[C@H](C(=O)N[C@H](C(=O)O)c4cc(O)cc(O)c4-c4cc3ccc4O)[C@H](O)c3ccc(c(Cl)c3)Oc3cc2cc(c3O[C@@H]2O[C@H](CO)[C@@H](O)[C@H](O)[C@H]2O[C@H]2C[C@](C)(NC(=O)CCCCCCCCC[n+]3ccc(C)cc3)[C@H](O)[C@H](C)O2)Oc2ccc(cc2Cl)[C@H]1O.[Br-]`, for which the MIC in the experiment with Escherichia coli [1] is greater than 128 µg/mL; in the experiment on Acinetobacter baumannii [2], greater than 128 µg/mL; in the experiment on Staphylococcus aureus [3], 8 µg/mL; in the experiment on Acinetobacter baumannii [4], greater than 128 µg/mL; in the experiment on Escherichia coli [5] it was greater than 128 µg/mL; with Staphylococcus aureus [6], greater than 128 µg/mL.

As for `CN[C@H](CC(C)C)C(=O)N[C@H]1C(=O)N[C@@H](CC(N)=O)C(=O)N[C@H]2C(=O)N[C@H]3C(=O)N[C@H](C(=O)N[C@H](C(=O)O)c4cc(O)cc(O)c4-c4cc3ccc4O)[C@H](O)c3ccc(c(Cl)c3)Oc3cc2cc(c3O[C@@H]2O[C@H](CO)[C@@H](O)[C@H](O)[C@H]2O[C@H]2C[C@](C)(NC(=O)CCCCCCCCCCC[n+]3cccc(C(C)=O)c3)[C@H](O)[C@H](C)O2)Oc2ccc(cc2Cl)[C@H]1O.[Br-]`, the MIC is greater than 128 µg/mL against Escherichia coli [1]; greater than 128 µg/mL against Acinetobacter baumannii [2]; 4 µg/mL against Staphylococcus aureus [3]; greater than 128 µg/mL in the experiment on Acinetobacter baumannii [4]; greater than 128 µg/mL against Escherichia coli [5]; 64 µg/mL against Staphylococcus aureus [6].

`CN[C@H](CC(C)C)C(=O)N[C@H]1C(=O)N[C@@H](CC(N)=O)C(=O)N[C@H]2C(=O)N[C@H]3C(=O)N[C@H](C(=O)N[C@H](C(=O)O)c4cc(O)cc(O)c4-c4cc3ccc4O)[C@H](O)c3ccc(c(Cl)c3)Oc3cc2cc(c3O[C@@H]2O[C@H](CO)[C@@H](O)[C@H](O)[C@H]2O[C@H]2C[C@](C)(NC(=O)CCCCCCCCCCC[n+]3cccc(NC(=O)OC(C)(C)C)c3)[C@H](O)[C@H](C)O2)Oc2ccc(cc2Cl)[C@H]1O.[Br-]`: the MIC against Escherichia coli [1] is greater than 128 µg/mL; in the experiment with Acinetobacter baumannii [2], greater than 128 µg/mL; in the experiment on Staphylococcus aureus [3] it was 4 µg/mL; in the experiment on Acinetobacter baumannii [4], greater than 128 µg/mL; against Escherichia coli [5] it was greater than 128 µg/mL; with Staphylococcus aureus [6] it was greater than 128 µg/mL.

Regarding `CCCCCCCCCC[n+]1ccc(C(=O)NCCNC(=O)[C@H]2NC(=O)[C@H]3NC(=O)[C@H](NC(=O)[C@@H]4NC(=O)[C@H](CC(N)=O)NC(=O)[C@H](NC(=O)[C@@H](CC(C)C)NC)[C@H](O)c5ccc(c(Cl)c5)Oc5cc4cc(c5O[C@@H]4O[C@H](CO)[C@@H](O)[C@H](O)[C@H]4O[C@H]4C[C@](C)(N)[C@H](O)[C@H](C)O4)Oc4ccc(cc4Cl)[C@H]3O)c3ccc(O)c(c3)-c3c(O)cc(O)cc32)cc1.[Br-]`, the MIC is greater than 128 µg/mL against Escherichia coli [1]; 16 µg/mL against Acinetobacter baumannii [2]; 2 µg/mL in the experiment on Staphylococcus aureus [3]; 32 µg/mL in the experiment on Acinetobacter baumannii [4]; greater than 128 µg/mL against Escherichia coli [5]; 64 µg/mL in the experiment with Staphylococcus aureus [6].

In the case of `CN[C@H](CC(C)C)C(=O)N[C@H]1C(=O)N[C@@H](CC(N)=O)C(=O)N[C@H]2C(=O)N[C@H]3C(=O)N[C@H](C(=O)N[C@H](C(=O)O)c4cc(O)cc(O)c4-c4cc3ccc4O)[C@H](O)c3ccc(c(Cl)c3)Oc3cc2cc(c3O[C@@H]2O[C@H](CO)[C@@H](O)[C@H](O)[C@H]2O[C@H]2C[C@](C)(NC(=O)CCCCCCCCCCC[n+]3ccc(C)cc3)[C@H](O)[C@H](C)O2)Oc2ccc(cc2Cl)[C@H]1O.[Br-]`, the MIC in the experiment with Escherichia coli [1] was greater than 128 µg/mL; in the experiment with Acinetobacter baumannii [2] it was greater than 128 µg/mL; with Staphylococcus aureus [3] it was 4 µg/mL; in the experiment with Acinetobacter baumannii [4], greater than 128 µg/mL; in the experiment with Escherichia coli [5] it was greater than 128 µg/mL; against Staphylococcus aureus [6], greater than 128 µg/mL.

Source of the values: ChEMBL document CHEMBL6109104, “Synthesis and antibacterial evaluations of novel vancomycin analogues targeting bacteria membrane to combat Gram-negative infections” (Eur J Med Chem, 2025).
